Reference: patent US12570666B2, “Furoindazole derivatives” (Bayer Aktiengesellschaft, priority 2019, dated 2026)

Target: T1, human GPR84 receptor (Homo sapiens, UniProt Q9NQS5)
T1 construct: frozen aliquots prepared by acCELLerate; host or cells: CHO-K1
Test: cAMP HTRF assay for identification of cellular GPR84 antagonists
Assay type: cell-based
Conditions: CHO-K1 cells stably expressing human GPR84; Forskolin + agonist 6-OAU (EC80); average or median values
Excerpt: cAMP HTRF® Assay for Identification of Cellular GPR84 Antagonists
By using a Homogenous Time-Resolved Fluorescence (HTRF®) based assay (#62AM5PEJ, Cisbio, Condolet, France) the inhibition of the Gi-coupled GPR84 receptor can be detected. CHO-K1 cells stably expressing human GPR84 receptor (purchased from DiscoveRx, now Eurofins) were used and treated with Forskolin (F6886, Sigma, Germany) to stimulate membrane adenylyl cyclases and thereby unspecific cAMP formation. Activation of the Gi-coupled GPR84 by a natural or small molecule agonist (e.g. 6-n-octyl aminouracile, inhouse) results in inhibition of cellular cAMP formation which can be released again by antagonists to this receptor. Detection and quantification of cellular cAMP levels in this HTRF assay is achieved by interaction between a fluorescent cAMP tracer (cAMP-d2) and an Eu-cryptate labelled anti-cAMP antibody. Following excitation at 337 nm this pairing allows for the generation of a fluorescence resonance energy transfer (FRET) between the partners and results in FRET induced emissions at 665 nm and 620 nm, the latter representing background signal by Eu-cryptate labelled anti-cAMP antibody. Maximal signal is obtained in the absence of any cellular cAMP (no competition for the binding of the tracer to the antibody). Given the combination of the Gi coupling properties of GPR84 and the competitive nature of the detection system agonist treatment should result in an increase in the HTRF signal due to lowered cAMP levels. Any signal decrease in the presence of Forskolin, agonist and compound is indicative of antagonist mediated abrogation of GPR84 signalling.
For the assay, frozen aliquots of CHO-K1 cells expressing hGPR84 (prepared by acCELLerate, Hamburg, Germany) were thawed and a cell suspension (1.67E+06 cells/mL) in assay media (Ham's F12 Nutrient Mix, Thermo Fisher Scientific, Waltham, USA; 5% fetal calf serum, Biomol, Hamburg, Germany) containing cAMP-d2 (dilution 1:20, supplied with the kit #62AM5PEJ, Cisbio, Condolet, France) was prepared. After recovery of cells for 20 minutes at 37° C., 3 μL/well cell suspension including cAMP-d2 were added to a pre-dispensed assay plate (Greiner Bio-One, Kremsmuenster, Austria) containing 50 nl/well test compound in 100% DMSO or 100% DMSO as control. This was followed by a 30 minutes incubation step at room temperature. […] The reaction was stopped by addition of 3 μL/well lysis buffer containing cAMP Eu-Cryptate antibody (dilution 1:20) (both supplied with the kit #62AM5PEJ, Cisbio, Condolet, France). To enable complete lysis, plates were incubated for 60 minutes at room temperature before measurement in an HTRF reader, e.g. a PHERAstar (BMG Labtech, Ortenberg, Germany).
From the fluorescence emissions at 665 nm (FRET) and at 620 nm (background signal of Eu-cryptate) the ratio (emission at 665 nm divided by emission at 620 nm×10000) was calculated and the data were normalized (reaction without test compound, only 100% DMSO=0% inhibition; all other assay components except agonist=100% inhibition). For dose response testing on the same microtiter plate, compounds were tested at 11 different concentrations in the range of 20 μM to 0.07 nM (20 μM, 5.7 μM, 1.6 μM, 0.47 μM, 0.13 μM, 38 nM, 11 nM, 3.1 nM, 0.89 nM, 0.25 and 0.07 nM; dilution series prepared before the assay at the level of the 100-fold conc. stock solutions by serial 1:3.5 dilutions in 100% DMSO) in duplicate values for each concentration. IC50 values were calculated by 4-parameter fitting using a commercial software package (Genedata Screener, Basel, Switzerland).
Examples were tested in selected biological assays one or more times. […]

T1 sequence (Q9NQS5 whole entry): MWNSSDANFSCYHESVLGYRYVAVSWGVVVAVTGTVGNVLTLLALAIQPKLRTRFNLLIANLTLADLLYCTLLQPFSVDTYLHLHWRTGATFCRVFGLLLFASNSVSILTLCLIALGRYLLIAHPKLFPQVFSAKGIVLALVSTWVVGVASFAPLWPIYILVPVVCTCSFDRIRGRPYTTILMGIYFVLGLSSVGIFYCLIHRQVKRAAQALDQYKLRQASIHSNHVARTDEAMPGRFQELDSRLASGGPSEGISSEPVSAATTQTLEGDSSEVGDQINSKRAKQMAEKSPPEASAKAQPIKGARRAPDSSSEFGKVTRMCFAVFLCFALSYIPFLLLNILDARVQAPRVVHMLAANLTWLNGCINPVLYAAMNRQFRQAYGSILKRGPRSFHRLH

Cc1c(C(=O)NC[C@H]2COCCO2)oc2c1-c1nn(Cc3ccccn3)cc1C1(CCC1)C2 [Example 133]
IC50: 0.94 µM

Cc1conc1CNC(=O)c1oc2c(c1C)-c1nn(Cc3ccccn3)cc1CC2 [Example 26, 8-methyl-N-[(4-methyl-1,2-oxazol-3-yl)methyl]-2-(pyridin-2-ylmethyl)-4,5-dihydro-2H-furo[2,3-g]indazole-7-carboxamide]
IC50: 1.19 µM

Cc1ccc(CNC(=O)c2oc3c(c2C)-c2nn(CC4COc5ncccc5O4)cc2CC3)cc1 (centres unmarked) [Example 53]
IC50: 0.032 µM

Cc1ccc(Cn2cc3c(n2)-c2c(oc(C(=O)NC[C@@H]4COCCO4)c2C(F)(F)F)CC32CCC2)nc1 [Example 278, N-[(2R)-1,4-Dioxan-2-ylmethyl]-2′-[(5-methylpyridin-2-yl)methyl]-8′-(trifluormethyl)-2′,5′-dihydrospiro[cyclobutan-1,4′-furo[2,3-g]indazol]-7′-carboxamide]
IC50: 0.01 µM

Cc1c(C(=O)NC[C@@H]2CCCO2)oc2c1-c1nn(CCN3CCNCC3)cc1CC2 [Example 162, 8-methyl-2-[2-(piperazin-1-yl)ethyl]-N-[(2S)-tetrahydrofuran-2-ylmethyl]-4,5-dihydro-2H-furo[2,3-g]indazole-7-carboxamide]
IC50: 6.74 µM

Cc1c(C(=O)NC[C@@H]2CCOC2)oc2c1-c1nn(Cc3ccccn3)cc1CC2 [Example 33-1, 8-methyl-2-(pyridin-2-ylmethyl)-N-[(3S)-tetrahydrofuran-3-ylmethyl]-4,5-dihydro-2H-furo[2,3-g]indazole-7-carboxamide]
IC50: 1.89 µM

Cc1c(C(=O)NC[C@H]2CCC3(COC3)O2)oc2c1-c1nn(C[C@H]3COCCO3)cc1C1(CC1)C2 (single isomer, unassigned) [Example 201-2]
IC50: 0.112 µM

CC(=O)N1CC(Cn2cc3c(n2)-c2c(oc(C(=O)NC[C@@H]4CCCO4)c2C)CC3)C1 [Example 164, 2-[(1-acetylazetidin-3-yl)methyl]-8-methyl-N-[(2S)-tetrahydrofuran-2-ylmethyl]-4,5-dihydro-2H-furo[2,3-g]indazole-7-carboxamide]
IC50: 0.98 µM

Cc1c(C(=O)NC[C@@H]2COCCO2)oc2c1-c1nn(Cc3ncccc3Cl)cc1CC2 [Example 61, 2-[(3-chloropyridin-2-yl)methyl]-N-[(2R)-1,4-dioxan-2-ylmethyl]-8-methyl-4,5-dihydro-2H-furo[2,3-g]indazole-7-carboxamide]
IC50: 0.02 µM

C[C@@H]1Cc2oc(C(=O)NCc3cocn3)c(C(F)(F)F)c2-c2nn(C[C@H]3COCCO3)cc21 (single isomer, unassigned) [Example 261, (4R or 4S)-2-{[(2S)-1,4-dioxan-2-yl]methyl}-4-methyl-N-[(1,3-oxazol-4-yl)methyl]-8-(trifluoromethyl)-4,5-dihydro-2H-furo[2,3-g]indazole-7-carboxamide]
IC50: 0.063 µM

CC1(C)Cc2oc(C(=O)NC[C@@H]3COCCO3)c(C(F)(F)F)c2-c2nn(C[C@H]3COCCO3)cc21 [Example 267, N-{[(2R)-1,4-dioxan-2-yl]methyl}-2-{[(2S)-1,4-dioxan-2-yl]methyl}-4,4-dimethyl-8-(trifluoromethyl)-4,5-dihydro-2H-furo[2,3-g]indazole-7-carboxamide]
IC50: 0.057 µM

O=C(NC[C@@H]1CCCO1)c1oc2c(c1C(F)(F)F)-c1nn(C[C@H]3COCCO3)cc1C1(CC1)C2 [Example 168, 2′-[(2S)-1,4-dioxan-2-ylmethyl]-N-[(2S)-tetrahydrofuran-2-ylmethyl]-8′-(trifluoromethyl)-2′,5′-dihydrospiro[cyclopropane-1,4′-furo[2,3-g]indazole]-7′-carboxamide]
IC50: 0.01 µM

O=C(NCCc1cnccn1)c1oc2c(c1C(F)(F)F)-c1nn(C[C@H]3COCCO3)cc1CC2 [Example 240, 2-{[(2S)-1,4-dioxan-2-yl]methyl}-N-[2-(pyrazin-2-yl)ethyl]-8-(trifluoromethyl)-4,5-dihydro-2H-furo[2,3-g]indazole-7-carboxamide]
IC50: 2.81 µM

CC1Cc2oc(C(=O)NC[C@@H]3COCCO3)c(C(F)(F)F)c2-c2nn(C[C@H]3COCCO3)cc21 (single isomer, unassigned) [Example 254-1, (4R or 4S)-N-{[(2R)-1,4-dioxan-2-yl]methyl}-2-{[(2S)-1,4-dioxan-2-yl]methyl}-4-methyl-8-(trifluoromethyl)-4,5-dihydro-2H-furo[2,3-g]indazole-7-carboxamide]
IC50: 0.01 µM

Cc1c(C(=O)NCc2cc(CN3CCOCC3)on2)oc2c1-c1nn(Cc3ccccn3)cc1CC2 [Example 11, 8-methyl-N-{[5-(morpholin-4-ylmethyl)-1,2-oxazol-3-yl]methyl}-2-(pyridin-2-ylmethyl)-4,5-dihydro-2H-furo[2,3-g]indazole-7-carboxamide]
IC50: > 20 µM

Cc1c(C(=O)NCc2cnoc2)oc2c1-c1nn(Cc3ccccn3)cc1CC2 [Example 24, 8-methyl-N-(1,2-oxazol-4-ylmethyl)-2-(pyridin-2-ylmethyl)-4,5-dihydro-2H-furo[2,3-g]indazole-7-carboxamide]
IC50: 6.56 µM

Cc1cccc(Cn2cc3c(n2)-c2c(oc(C(=O)NCc4ncco4)c2C)CC3)n1 [Example 72, 8-methyl-2-[(6-methylpyridin-2-yl)methyl]-N-(1,3-oxazol-2-ylmethyl)-4,5-dihydro-2H-furo[2,3-g]indazole-7-carboxamide]
IC50: 0.24 µM

Cc1ccc(Cn2cc3c(n2)-c2c(oc(C(=O)NC[C@@H]4COCCO4)c2C(F)(F)F)CC3C)cn1 (mixture of isomers) [Example 252, (4±)-N-{I(2R)-1,4-dioxan-2-yl]methyl)-4-methyl-2-[(6-methylpyridin-3-yl)methyl]-8-(trifluoromethyl)-4,5-dihydro-2H-furo[2,3-g]indazole-7-carboxamide]
IC50: 0.009 µM

O=C(NC[C@@H]1CCCO1)c1oc2c(c1C(F)(F)F)-c1nn(CC3CCN(CC4CC4)CC3)cc1CC2 [Example 307, 2-{[1-(cyclopropylmethyl)piperidin-4-yl]methyl}-N-{[(2S)-oxolan-2-yl]methyl}-8-(trifluoromethyl)-4,5-dihydro-2H-furo[2,3-g]indazole-7-carboxamide]
IC50: 0.062 µM

Cc1c(C(=O)NCc2ccn(C)n2)oc2c1-c1nn(Cc3ccccn3)cc1C1(CC1)C2 [Example 123, 8′-methyl-N-[(1-methyl-1H-pyrazol-3-yl)methyl]-2′-(pyridin-2-ylmethyl)-2′,5′-dihydrospiro[cyclopropane-1,4′-furo[2,3-g]indazole]-7′-carboxamide]
IC50: 0.12 µM

Cc1c(C(=O)NC[C@@H]2COCCO2)oc2c1-c1nn(C[C@H]3COCCO3)cc1C(C(F)(F)F)C2 (mixture of isomers) [Example 265, (4±)-N-{[(2R)-1,4-dioxan-2-yl]methyl}-2-{[(2S)-1,4-dioxan-2-yl]methyl}-8-methyl-4-(trifluoromethyl)-4,5-dihydro-2H-furo[2,3-g]indazole-7-carboxamide]
IC50: 0.238 µM

Cc1c(C(=O)NC[C@@H]2CCCO2)oc2c1-c1nn(Cc3cccc(C(F)(F)F)n3)cc1CC2 [Example 56, 8-methyl-N-[(2S)-tetrahydrofuran-2-ylmethyl]-2-{[6-(trifluoromethyl)pyridin-2-yl]methyl}-4,5-dihydro-2H-furo[2,3-g]indazole-7-carboxamide]
IC50: 0.092 µM

Cc1c(C(=O)NCc2ccon2)oc2c1-c1nn(Cc3ccccn3)cc1CC2 [Example 6, 8-methyl-N-(1,2-oxazol-3-ylmethyl)-2-(pyridin-2-ylmethyl)-4,5-dihydro-2H-furo[2,3-g]indazole-7-carboxamide]
IC50: 0.8 µM
